Reference: patent US20030049204A1, “Individualization of therapy with gastroesophageal reflux disease agents” (McGill University, priority 2001, published 2003)
Read-outs that look alike come from different tables or passages of the source. Marks after values point to notes of the source that are not given here.

Tests used:
[1] = test system: AAMU-Ab; assay: Competitive antigen ELISA, cross-reactivity of AAMU-Ab; type: binding, rabbit; conditions: 0 = absence of inhibition or inhibition no higher than 40% at highest concentration tested (5 × 10^−3 M)
Description: (§1) Four mature females New Zealand white rabbits (Charles River Canada, St-Constant, Que., Canada) are used for antibody production. The protocol employed in this study was approved by the McGill University Animal Care Committee in accordance with the guidelines from the Canadian Council on Animal Care. Antibodies of the present invention may be monoclonal or polyclonal antibodies.
(§2) A 0.5 mL aliquot of the emulsion ([…] of antigen) is injected per rabbit intramuscularly or subcutaneously. Rabbits are subsequently boosted at intervals of three weeks with […] of antigen emulsified in incomplete Freund's adjuvant. […] Antisera are stored at 4° C. in the presence of 0.01% sodium azide.
(§3) Buffers and water without additives are filtered through millipore filters and kept for 1 week. BSA, antibodies, Tween™ 20 and horse radish peroxidase conjugates are added to these buffers and water just prior to use. Urine samples are usually collected 4 hours after drinking a cup of coffee (instant or brewed with approximately 100 mg of caffeine per cup) and stored at −80° C. The urine samples are diluted 10 times with sodium phosphate buffer (620 mosm, pH 7.50) and are subsequently diluted with water to give concentrations of AAMU and 1X no higher than 3×10^−6 M in the ELISA. All the pipettings are done with an eight-channel pipette, except those of the antibody and sample solutions. Starting with the last well, 100 μL of a carbonate buffer (100 mM, pH 9.6) containing 2.5 μg mL-^1 antibodies are added to each well. After 90 min. at room temperature, the wells are washed three times with 100 mL of TPB: isotonic sodium phosphate buffer (310 mosm, pH 7.50) containing 0.05% Tween™ 20.
(§4) After the initial wash, unoccupied sites are blocked by incubation for 90 min. at room temperature with 100 μL TBP containing 3% BSA. The wells are washed four times with 100 μL TPB. […] The microplate is gently shaken with an orbital shaker at room temperature for 3-4 hours. The wells are washed three times with 100 μL TPB containing 1% BSA and three times with water containing 0.05% Tween™ 20. To the washed plate is added 150 μL of a substrate buffer composed of citric acid (25 mM) and sodium phosphate dibasic buffer (50 mM, pH 5.0) containing 0.06% hydrogen peroxide and 0.04% o-phenylenediamine hydrochloride.
as §3, with “were” for “are”, “They were” for “The urine samples are”, “mL^−1” for “mL-^1”, “was pipetted.” for “are added to each well.”, “μL” for “mL”
(§5) After the initial wash, unoccupied sites were blocked by incubation for 90 min. at room temperature with 100 μL TBP containing 3% BSA. The wells were washed four times with 100 μL TPB. […] The microplate was gently shaken with an orbital shaker at room temperature for 3-4 hours. The wells were washed three times with 100 μL with TPB containing 1% BSA and three times with water containing 0.05% Tween™ 20. To the washed plate was added 150 μL of a substrate buffer composed of citric acid (25 mM) and sodium phosphate dibasic buffer (50 mM, pH 5.0) containing 0.06% hydrogen peroxide and 0.04% o-phenylenediamine hydrochloride.

[2] = test system: 1X-Ab; assay: Competitive antigen ELISA, cross-reactivity of 1X-Ab; type: binding, rabbit; conditions: 0 = absence of inhibition or inhibition no higher than 40% at highest concentration tested (5 × 10^−3 M)
Description: as §1, §2, §3, §4
as §3, with “were” for “are”, “They were” for “The urine samples are”, “mL^−1” for “mL-^1”, “was pipetted.” for “are added to each well.”, “μL” for “mL”
as §5

[3] = test system: plasma proteins, mainly albumin; conditions: cited from earlier work
[4] = biological target: T1, rapid component of the delayed rectifying K^+ current (lkr) (Oryctolagus cuniculus, UniProt Q8WNY2); conditions: in vivo anesthetized guinea pig and rabbit; in vitro isolated rabbit preparations; cited from earlier work
T1 construct: in vitro isolated rabbit Purkinje fibers and ventricular papillary muscle and isolated rabbit ventricular myocyte models; from tissue; host or cells: rabbit Purkinje fibers, ventricular papillary muscle and ventricular myocytes; also anesthetized guinea pig and rabbit in vivo
T1 sequence (Q8WNY2 1-1161): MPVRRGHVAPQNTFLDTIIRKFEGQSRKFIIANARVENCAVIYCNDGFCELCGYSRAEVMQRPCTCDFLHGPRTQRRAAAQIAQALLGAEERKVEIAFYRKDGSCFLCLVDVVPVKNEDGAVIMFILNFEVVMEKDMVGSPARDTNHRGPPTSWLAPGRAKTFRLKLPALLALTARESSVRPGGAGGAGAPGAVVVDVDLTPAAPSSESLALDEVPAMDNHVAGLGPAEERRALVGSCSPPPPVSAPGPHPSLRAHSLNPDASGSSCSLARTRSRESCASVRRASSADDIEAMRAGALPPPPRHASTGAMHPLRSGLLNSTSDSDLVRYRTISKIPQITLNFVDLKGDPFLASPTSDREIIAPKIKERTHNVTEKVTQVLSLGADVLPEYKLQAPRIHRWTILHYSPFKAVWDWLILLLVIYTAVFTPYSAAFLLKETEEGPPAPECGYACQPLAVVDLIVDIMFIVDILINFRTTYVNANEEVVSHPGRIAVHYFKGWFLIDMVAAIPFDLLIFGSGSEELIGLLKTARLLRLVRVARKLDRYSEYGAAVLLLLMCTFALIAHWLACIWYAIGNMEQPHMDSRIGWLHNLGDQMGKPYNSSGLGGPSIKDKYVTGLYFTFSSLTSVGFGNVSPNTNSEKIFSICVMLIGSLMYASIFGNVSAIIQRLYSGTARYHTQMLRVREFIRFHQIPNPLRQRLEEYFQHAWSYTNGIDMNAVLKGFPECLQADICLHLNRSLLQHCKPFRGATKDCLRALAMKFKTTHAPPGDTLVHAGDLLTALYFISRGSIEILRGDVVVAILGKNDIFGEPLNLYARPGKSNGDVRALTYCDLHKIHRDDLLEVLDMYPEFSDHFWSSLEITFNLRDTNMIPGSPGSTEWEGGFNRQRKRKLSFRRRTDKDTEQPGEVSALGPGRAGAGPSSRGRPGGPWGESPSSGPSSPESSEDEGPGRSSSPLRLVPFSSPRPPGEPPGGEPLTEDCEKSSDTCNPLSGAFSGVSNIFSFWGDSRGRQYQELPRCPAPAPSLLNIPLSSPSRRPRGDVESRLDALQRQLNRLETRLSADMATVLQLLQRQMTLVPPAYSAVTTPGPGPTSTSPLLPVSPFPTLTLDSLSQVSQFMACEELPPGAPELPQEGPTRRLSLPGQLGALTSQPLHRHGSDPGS

[5] = especially less severe degrees of esophagitis; cited from earlier work
[6] = cited from earlier work
[7] = in vivo; cited from earlier work
[8] = biological target: serotonin-4 (5-HT4) receptor (Homo sapiens, UniProt Q13639); conditions: in vitro; cited from earlier work
[9] = cited from earlier work; remark: listed apart in the source

Sequence of serotonin-4 (5-HT4) receptor (Q13639 whole entry, species assumed): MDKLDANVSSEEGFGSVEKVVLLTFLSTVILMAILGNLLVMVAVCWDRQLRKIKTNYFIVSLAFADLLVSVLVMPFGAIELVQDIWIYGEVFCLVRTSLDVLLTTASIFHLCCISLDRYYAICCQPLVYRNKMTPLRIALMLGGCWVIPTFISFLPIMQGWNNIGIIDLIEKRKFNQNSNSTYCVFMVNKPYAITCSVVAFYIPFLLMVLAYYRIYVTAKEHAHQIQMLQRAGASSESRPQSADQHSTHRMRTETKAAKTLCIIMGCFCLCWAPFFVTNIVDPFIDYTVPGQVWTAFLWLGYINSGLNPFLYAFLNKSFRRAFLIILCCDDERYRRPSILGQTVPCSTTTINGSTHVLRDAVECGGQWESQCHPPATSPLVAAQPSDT

Structure (SMILES): O=c1[nH]c(=O)c2[nH]cnc2[nH]1 [Xanthine]
- % Cross-Reaction AAMU-Ab [1]: 0^a %
- % Cross-Reaction 1X-Ab [2]: 0%

Structure (SMILES): Cn1c(=O)[nH]c2[nH]c(=O)[nH]c2c1=O [1-Methyluric acid]
- % Cross-Reaction AAMU-Ab [1]: 0%
- % Cross-Reaction 1X-Ab [2]: 11%

Structure (SMILES): COc1cc(N)c(Cl)cc1C(=O)NC1CCN(CCCOc2ccc(F)cc2)CC1OC (centres unmarked) [Cisapride]
- binding to plasma proteins [3]: 97.5-98%
- effect on cardiac repolarization [4]: prolonged cardiac repolarization without slowing conduction
- long-term control of GERD, individuals [5]: up to 50%
- half-life ([6]; following intravenous (IV) administration): up to 20 hours
- absolute bioavailability ([6]; in vivo): 35-40%
- plasma clearance ([6]; in vivo): about 100 ml/min
- volume of distribution ([6]; in vivo): about 180 L
- unmetabolized drug accounted for in urinary and fecal recovery ([6]; oral administration): less than 10%
- deaths among reports of heart rhythm abnormalities [7]: 80
- diarrhea, individuals affected [7]: about 10%
- reports of heart rhythm abnormalities [7]: at least 341
- activity at serotonin-4 (5-HT4) receptor [8]: receptor agonist

Structure (SMILES): Cc1nc2[nH]c(=O)[nH]c(=O)c2[nH]1 [8-Methyl Xanthine]
- % Cross-Reaction AAMU-Ab [1]: 0%
- % Cross-Reaction 1X-Ab [2]: 0%

Structure (SMILES): O=c1cc[nH]c(=O)[nH]1 [Uracil]
- % Cross-Reaction AAMU-Ab [1]: 0%
- % Cross-Reaction 1X-Ab [2]: 0%

Structure (SMILES): Nc1nc2nc[nH]c2c(=O)[nH]1 [Guanine]
- % Cross-Reaction AAMU-Ab [1]: 0%
- % Cross-Reaction 1X-Ab [2]: 0%

Structure (SMILES): Nc1ccc(S(=O)(=O)c2ccc(N)cc2)cc1 [dapsone]
- adverse reactions ([9]; fast acetylators): 17%
- adverse reactions ([9]; slow acetylators): 46%

Structure (SMILES): Cn1c(=O)c2[nH]cnc2n(C)c1=O [1,3-Dimethyl Xanthine (Theophylline), 1,3-Dimethyl Xanthine]
- % Cross-Reaction AAMU-Ab [1]: 0%
- % Cross-Reaction 1X-Ab [2]: 0.2%

Structure (SMILES): Cn1c(=O)c2c(ncn2C)n(C)c1=O [1,3,7-Trimethyl Xanthine (Caffeine), 1,3,7-Trimethyl Xanthine]
- % Cross-Reaction AAMU-Ab [1]: 0%
- % Cross-Reaction 1X-Ab [2]: 0%

Structure (SMILES): Cn1c(=O)[nH]c2nc[nH]c2c1=O [1-Methyl Xanthine (1X), 1-Methyl Xanthine]
- % Cross-Reaction AAMU-Ab [1]: 0%
- % Cross-Reaction 1X-Ab [2]: 100%

Structure (SMILES): CC(=O)Nc1c(N)[nH]c(=O)[nH]c1=O [5-Acetamino-6-amino-uracil]
- % Cross-Reaction AAMU-Ab [1]: 0.6%
- % Cross-Reaction 1X-Ab [2]: 0%

Structure (SMILES): Cn1c(=O)[nH]c2ncn(C)c2c1=O [1,7-Dimethyl Xanthine (Paraxanthine), 1,7-Dimethyl Xanthine]
- % Cross-Reaction AAMU-Ab [1]: 0%
- % Cross-Reaction 1X-Ab [2]: 0.5%

Structure (SMILES): O=c1[nH]cnc2nc[nH]c12 [Hypoxanthine]
- % Cross-Reaction AAMU-Ab [1]: 0%
- % Cross-Reaction 1X-Ab [2]: 0%

Structure (SMILES): O=c1[nH]c(=O)c2[nH]c(=O)[nH]c2[nH]1 [Uric acid]
- % Cross-Reaction AAMU-Ab [1]: 0%
- % Cross-Reaction 1X-Ab [2]: 0%

Structure (SMILES): Cn1c(=O)[nH]c(=O)c2[nH]cnc21 [3-Methyl Xanthine]
- % Cross-Reaction AAMU-Ab [1]: 0%
- % Cross-Reaction 1X-Ab [2]: 0%

Structure (SMILES): CC(=O)Nc1c(N)n(C)c(=O)n(C)c1=O [5-Acetamino-6-amino-1,3-dimethyluracil]
- % Cross-Reaction AAMU-Ab [1]: 0%
- % Cross-Reaction 1X-Ab [2]: 0%

Structure (SMILES): CC(=O)Nc1c(N)n(C)c(=O)[nH]c1=O [5-Acetamino-6-amino-1-methyluracil]
- % Cross-Reaction AAMU-Ab [1]: 100%
- % Cross-Reaction 1X-Ab [2]: 0%

Structure (SMILES): Cn1cnc2c1c(=O)[nH]c(=O)n2C [3,7-Dimethyl Xanthine (Theobromine), 3,7-Dimethyl Xanthine]
- % Cross-Reaction AAMU-Ab [1]: 0%
- % Cross-Reaction 1X-Ab [2]: 0%

Structure (SMILES): Cn1cnc2[nH]c(=O)[nH]c(=O)c21 [7-Methyl Xanthine]
- % Cross-Reaction AAMU-Ab [1]: 0%
- % Cross-Reaction 1X-Ab [2]: 0%

Structure (SMILES): Cn1c(=O)[nH]c2[nH]c(=O)n(C)c2c1=O [1,7-Dimethyluric acid]
- % Cross-Reaction AAMU-Ab [1]: 0%
- % Cross-Reaction 1X-Ab [2]: 0%
